According to patent publication US20070060558A1 (PALUMED S.A., priority 2004, published 2007):
Values after ≈ are worked out from the molar mass of the structure shown. Where two headings read alike, the source gives them in different places. Starred links: 1 amine or outer side, 2 acyl side, 3 side chain; linkers in the order of their positions; H or OH if unused. Positions of bridges follow the written chain, without caps; N, C: chain ends. Non-standard residues stand in square brackets, D forms with d. Residues, ends and D or L forms follow the SMILES beside them. ξ: configuration not given here. *: point of attachment. X1 = O=C1C[C@@H](C(=O)[*:2])N([*:1])C[C@H]1CSCCNc1ccnc2cc(Cl)ccc12; NMePhe(4-NMe2) = CN[C@@H](Cc1ccc(N(C)C)cc1)C(=O)O; Picolinoyl(3-OH) = O=C(c1ncccc1O)*; ξPhg = NC(C(=O)O)c1ccccc1; dAbu = CC[C@@H](N)C(=O)O

What was measured:
[1] = system: H. influenzae CIP 102514; assay: Antibacterial activity (MIC/MBC); assay type: cell-based, Haemophilus influenzae; settings: Haemophilus influenzae, CIP102514
[2] = system: S. pneumoniae PRSP CIP 104471; assay: Antibacterial activity (MIC/MBC); assay type: cell-based, Streptococcus pneumoniae; settings: Streptococcus pneumoniae; for MIC: read-out: MIC
[3] = Stability in solution at pH 1 (HPLC purity over time); assay type: physicochemical; settings: pH 1, 37° C.
Procedure: (§1) The stability of the aminoquinoline-cephalosporin_hybrid molecules given as examples was determined in solution at 37° C., at physiological pH (pH 7, phosphate buffer/acetonitrile, 75/25 v/v) and at acidic pH (pH 1, 0.1 M HCl/ethanol, 70/30 v/v) by high pressure liquid chromatography coupled to a UV-visible detector (Beckman Coulter ODS C18 column, 5 μm, 4.6×250 mm; eluents: A: 0.1% TFA, B: CH3CN/H2O 90/10 0.1% TFA, gradient: from 10% to 100% of B in 30 minutes, and then 100% of B for 10 minutes, flow rate 1 mL/minutes, λ=254 nm, volume injected: 10 μL).

[4] = system: E. faecalis VRE CIP 104676; assay: Antibacterial activity (MIC/MBC); assay type: cell-based, Enterococcus faecalis; settings: Enterococcus faecalis, E. faecalis VRE CIP 104676; for MIC: read-out: MIC
[5] = Stability in solution at pH 7 (HPLC purity over time); assay type: physicochemical; settings: pH 7, 37° C.
Procedure: as §1

[6] = system: Staphylococcus aureus MSSA CIP 4.83; assay: Antibacterial activity (MIC/MBC); assay type: cell-based; settings: S. aureus MSSA CIP 4.83
[7] = system: S. pneumoniae PRSP clinical isolate; assay: Antibacterial activity (MIC/MBC); assay type: cell-based, Streptococcus pneumoniae; settings: Streptococcus pneumoniae; for MIC: PRSP, read-out: MIC
[8] = system: S. aureus MRSA clinical isolate; assay: Antibacterial activity (MIC); assay type: cell-based, Staphylococcus aureus; settings: Staphylococcus aureus; S. aureus MRSA clinical isolate; read-out: MIC
[9] = system: S. pyogenes CIP 56.41T; assay: Antibacterial activity (MIC/MBC); assay type: cell-based, Streptococcus pyogenes; settings: Streptococcus pyogenes, CIP56; S. pyogenes CIP 56.41T; read-out: MIC
[10] = system: S. pneumoniae PSSP CQI 201; assay: Antibacterial activity (MIC); assay type: cell-based, Streptococcus pneumoniae; settings: Streptococcus pneumoniae; S. pneumoniae PSSP CQI 201; read-out: MIC
[11] = system: Human lung fibroblast cells (ATCC CCL-171); assay: Cytotoxicity (MTT) assay; settings: for % of survival cells compared to the untreated controls: 18 hr treatment
Procedure: Cellular toxicity was measured by a colorimetric assay that makes use of the tetrazolium salt, MTT. Human lung fibroblast cells (ATCC CCL-171) were plated in 96-well plates at 10^4 cells per well and incubated under 5% CO2 at 37° C. for 24 hr to allow adherence of cells to the plate. Test compounds were prepared as a stock solution at 1 mg/mL in 1% DMSO/water and diluted with water for the serial dilutions (500-7.8 μg/mL). Cells underwent a 18 hr treatment under 5% CO2 at 37° C. with experimental drugs. Corresponding controls received either no drug treatment or treatment with SDS (sodium dodecyl sulfate). The optical density of each sample was read on a microplate spectrophotometer reader at 600 nm and cell survival was expressed as a fraction of that of untreated controls. A drug is said cytotoxic when this fraction is ≦−30%

[12] = H. influenzae CIP 102514, read-out: MIC
[13] = Staphylococcus aureus, read-out: MBC
[14] = Staphylococcus aureus, read-out: MIC

`CC(=O)OCC1=C(C(=O)O)N2C(=O)[C@@H](NC(=O)CNc3ccnc4cc(Cl)ccc34)[C@H]2SC1.Cl` [PA 1089, (6R,7R)-3-Acetoxymethyl-7-[2-(7-chloroquinolin-4-ylamino)-acetylamino]-8-oxo-5-thia-1-aza-bicyclo[4.2.0]oct-2-ene-2-carboxylic acid hydrochloride] gave an MBC ([1]; H. influenzae CIP 102514, read-out: MBC) of over 50 µg/mL, an MIC [1, 12] of 3.12 µg/mL and an MBC [2] of 0.39 µg/mL. The MIC [2] was 0.39 µg/mL, the “Purity of the hybrid molecules (as a percentage) as a function of time (hours)” value ([3]; time 0 h) was 100% and the “Purity of the hybrid molecules (as a percentage) as a function of time (hours)” value ([3]; time 1 h) was 96%. The “Purity of the hybrid molecules (as a percentage) as a function of time (hours)” value ([3]; time 2 h) was 88%, the “Purity of the hybrid molecules (as a percentage) as a function of time (hours)” value ([3]; time 4 h) was 81% and the “Purity of the hybrid molecules (as a percentage) as a function of time (hours)” value ([3]; time 24 h) was 24%. For the same compound, the MBC [4] was 12.5 µg/mL, the MIC [4] was 6.25 µg/mL and the “Purity of the hybrid molecules (as a percentage) as a function of time (hours)” value ([5]; time 0 h) was 100%. The “Purity of the hybrid molecules (as a percentage) as a function of time (hours)” value ([5]; time 1 h) was 100%, the “Purity of the hybrid molecules (as a percentage) as a function of time (hours)” value ([5]; time 2 h) was 100% and the “Purity of the hybrid molecules (as a percentage) as a function of time (hours)” value ([5]; time 4 h) was 100%. The “Purity of the hybrid molecules (as a percentage) as a function of time (hours)” value ([5]; time 6 h) was 98%, the “Purity of the hybrid molecules (as a percentage) as a function of time (hours)” value ([5]; time 8 h) was 97% and the “Purity of the hybrid molecules (as a percentage) as a function of time (hours)” value ([5]; time 15 h) was 92%. For the same compound, the “Purity of the hybrid molecules (as a percentage) as a function of time (hours)” value ([5]; time 24 h) was 83%, the MBC [6, 13] was 0.39 µg/mL and the MIC [6, 14] was 0.2 µg/mL. It also gave an MBC [7] of 0.39 µg/mL and an MIC [7] of 0.39 µg/mL.

`CC(=O)OCC1=C(C(=O)O)N2C(=O)[C@@H](NC(=O)CNc3ccnc4cc(Cl)ccc34)[C@H]2[S+]([O-])C1` (stereo partly drawn) [PA 1092, (6R,7R-3-Acetoxymethyl-7-[2-7-chloroquinolin-4-ylamino)acetylamino]-5,8-dioxo-5λ^1-thia-1-aza-bicyclo[4.2.0]oct-2-ene-2-carboxylic acid] gave an MBC [1] of 50 µg/mL (≈ 98.6 µM), an MIC [1] of 12.5 µg/mL (≈ 24.7 µM) and an MBC [2] of 3.12 µg/mL (≈ 6.15 µM). It also gave an MIC [2] of 1.56 µg/mL (≈ 3.08 µM), an MBC [4] of over 50 µg/mL and an MIC [4] of over 50 µg/mL. It also gave an MBC [6, 13] of over 50 µg/mL, an MIC [6, 14] of 12.5 µg/mL (≈ 24.7 µM) and an MBC [7] of 12.5 µg/mL (≈ 24.7 µM). For the same compound, the MIC [7] was 6.25 µg/mL (≈ 12.3 µM).

In the case of `O=C(O)CNc1ccnc2cc(Cl)ccc12` [PA 1117, (7-Chloroquinolin-4-ylamino)acetic acid, reference compound], the MIC [1, 12] is reported as 50 µg/mL (≈ 211 µM), the MIC [2] is reported as 50 µg/mL (≈ 211 µM) and the MIC [4] is reported as over 50 µg/mL. For the same compound, the MIC [6, 14] was over 50 µg/mL and the MIC [7] was 50 µg/mL (≈ 211 µM).

In the case of `CC[C@H]1NC(=O)[C@@H](NC(=O)c2ncccc2O)[C@@H](C)OC(=O)C(c2ccccc2)NC(=O)[C@@H]2CC(=O)[C@H](CSCCNc3ccnc4cc(Cl)ccc34)CN2C(=O)[C@H](Cc2ccc(N(C)C)cc2)N(C)C(=O)[C@@H]2CCCN2C1=O` (some centres unmarked) [PA 1182, 5δ-{1-[2-(7-Chloroquinolin-4-ylamino)-ethylamino]-methylsulfanyl}pristinamycin IA] ({Picolinoyl(3-OH)}-T[dAbu]P[NMePhe(4-NMe2)][X1][ξPhg]; ester 1-C), the MIC [8] is reported as 1.25 µg/mL (≈ 1.12 µM), the MIC [9] is reported as 0.32 µg/mL (≈ 0.286 µM) and the MIC [10] is reported as 0.31 µg/mL (≈ 0.277 µM). The MIC [6, 14] was 0.31 µg/mL (≈ 0.277 µM).

Compound `CC1(C)S[C@@H]2[C@H](NC(=O)Cc3ccccc3)C(=O)N2[C@H]1C(=O)O` [Penicillin G, reference compound] has an MBC [6] of 0.06 µg/mL (≈ 0.179 µM) and an MIC [6] of 0.008 µg/mL (≈ 0.0239 µM).

In the case of `CCCCCCCCCCCCOS(=O)(=O)[O-].[Na+]` [SDS, sodium dodecyl sulfate, reference compound], the “% of survival cells compared to the untreated controls” value (from here on “% of survival cells”) ([11]; 7.8 μg/mL) is reported as “+2.1%”, the “% of survival cells” value ([11]; 15.6 μg/mL) is reported as −7.0% and the “% of survival cells” value ([11]; 31.2 μg/mL) is reported as −16.4%. The “% of survival cells” value ([11]; 62.5 μg/mL) was −77.9%, the “% of survival cells” value ([11]; 125 μg/mL) was −81.2% and the “% of survival cells” value ([11]; 250 μg/mL) was −81.1%. The “% of survival cells” value ([11]; 500 μg/mL) was −83.0%, the “concentration at which the threshold of cytotoxicity (−30%) is exceeded” value ([11]; human, 18 hr) was at least 31200 ng/mL and the “human lung fibroblast cells killed” value ([11]; human, 18 hr) was “more than 80%”.
